Assay results reported in patent US7410797B2, “Meningeal-derived stem cells” (priority 2002, dated 2008).

How the values were obtained:
[1] = system: Cells from the meninges; experiment: Neural differentiation of meningeal-derived stem cells in induction media; format: cell-based; details: for effect on neural differentiation compared with dexamethasone: used as substitutes for dexamethasone
Protocol: Cells from the meninges that are allowed to become 70% confluent (FIG. 2A) are susceptible to differentiating into nerve under two conditions: antioxidant treatment and steroid hormone treatment. […] This can also be achieved with other antioxidants (i.e., reducing agents), such as butylated hydroxyanisole (BHA) (approximately 200 μM), dithiothreitol (DTT; i.e., Cleland's reagent), as well as dithioerythritol, tributylphosphine, iodoacetamide, tris-phosphine HCl, deoxythymidine-triphosphate trilithium salt, diethylthiatricarbocyanine perchlorate, diethylthiatricarbocyanine iodide and DECROLINE D (available from BASF Corporation; Mount Olive, N.J.; generic name zinc formaldehyde sulfoxylate). These conditions are similar to those used to differentiate bone marrow-derived stem cells and adipose-derived stem cells (D. Woodbury et al., “Adult rat and human bone marrow stromal cells differentiate into neurons,” J. Neuroscience Res., 61(4):364-70 (2000)). The cells that form have a bipolar morphology and express nerve-specific markers.
The cells differentiate into what are morphologically distinct subsets of neurons when exposed to small concentrations (e.g, 100 nM) of dexamethasone; a steroid hormone.
These may therefore be used as substitutes for dexamethasone. Other steroids that may be used in accordance with this embodiment of the present invention include pregnenolone, aldosterone, testosterone, estradiol and cortisol.

[2] = system: Dural cells; experiment: Osseous differentiation of dural cells plated on substrate (alkaline phosphatase staining); format: cell-based; details: substrate 100 μg/cm^2
Protocol: Dural cells were forced to adopt a bony phenotype by two separate methods. The first included plating these cells on a MATRIGEL or laminin substrate (100 μg/cm^2).

Compound | effect on neural differentiation compared with dexamethasone [1] | other results
C=C1/C(=C\C=C2/CCC[C@]3(C)[C@@H]([C@H](C)CCCC(C)(C)O)CC[C@@H]23)C[C@@H](O)C[C@@H]1O [1,25-dihydroxy vitamin D3] | elicited similar effects to dexamethasone | –
OCCS [β-mercaptoethanol] | – | differentiation into neural-like cells ([1]; pre-induction media with 1 mM β-mercaptoethanol for 24 hours, then induction media DMEM, 5 mM β-mercaptoethanol, cells 70% confluent): differentiate into neural-like cells within six hours
laminin | – | expression of alkaline phosphatase (differentiated bone marker) [2]: expressed alkaline phosphatase (a differentiated bone marker) within seven days
CC1=C(/C=C/C(C)=C/C=C/C(C)=C/CO)C(C)(C)CCC1 [retinol] | elicited similar effects to dexamethasone | –
vitamin A | elicited similar effects to dexamethasone | –
CC1=C(/C=C/C(C)=C/C=C/C(C)=C/C=O)C(C)(C)CCC1 [retinaldehyde] | elicited similar effects to dexamethasone | –
